Tests used:
CYP1A2 = target: T1, CYP1A2 (Homo sapiens, UniProt P05177); experiment: Single concentration Kobs assay (time-dependent inhibition) in HLM; assay type: biochemical; conditions: for Kobs 1A2: HLM, 0.02 min^−1 indicates TD inhibition potential; for Kobs 1A2 / inhibition at 30 min: single concentration; for Single concentration Kobs assay (risk bin) 1A2: TD inhibition class from Kobs vs 0.02 min^−1 (Table 5 traffic lights); for inhibition at 30 min: human, human liver microsomes, significant if >50%, read-out: 1A2 R_Inh% (reversible inhibition)
T1 construct: Using HLM as the enzyme source; from tissue; host or cells: human liver microsomes
T1 sequence (P05177 1-516): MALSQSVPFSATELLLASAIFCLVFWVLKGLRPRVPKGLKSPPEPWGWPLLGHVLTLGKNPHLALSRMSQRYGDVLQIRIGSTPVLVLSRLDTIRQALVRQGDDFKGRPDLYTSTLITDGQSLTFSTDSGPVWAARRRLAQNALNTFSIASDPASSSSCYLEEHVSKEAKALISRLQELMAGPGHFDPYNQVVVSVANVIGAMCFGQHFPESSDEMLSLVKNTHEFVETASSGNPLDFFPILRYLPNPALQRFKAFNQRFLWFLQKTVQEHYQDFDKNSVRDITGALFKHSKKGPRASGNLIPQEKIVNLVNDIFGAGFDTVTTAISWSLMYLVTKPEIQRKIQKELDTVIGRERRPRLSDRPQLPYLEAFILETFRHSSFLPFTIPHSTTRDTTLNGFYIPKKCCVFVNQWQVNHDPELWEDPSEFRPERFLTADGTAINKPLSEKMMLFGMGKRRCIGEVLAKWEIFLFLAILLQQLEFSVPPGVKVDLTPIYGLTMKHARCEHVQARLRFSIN
Description: CYP inhibition evaluation is typically performed by either IC50 at single-point or IC50 Shift or abbreviated assay such as the first-order inactivity rate constant (K obs ) at single concentration.
This method yielded good correlations between the percent inhibition at 10 or 25 μ M and kinact/KI. Evaluation of TD inhibition at single concentration has been implemented in several drug discovery programs. […] Therefore, in this study, a single K obs approach has been utilized to understand the TD inhibition potential of TbB ligands. Ideally, the inhibition of CYPs can be reversible or irreversible. The data obtained from single-concentration K obs studies were analyzed to understand the same. From the data presented in Table 4, the TbB ligands have values less than 50% for reversible inhibition (R_Inh). As the qualified % reversible inhibition is considered significant if >50%, no significant reversible inhibition is observed for TbB ligands. Knowledge about enzyme inactivation half-life (E½) is also equally important as it would provide insight into the TD inhibition of a compound. E½ can be used to bin the compounds as positive or negative TD inhibitors if the values are <28 or >28, respectively. The TbB ligand 223-2 is observed to be a weak positive TD inhibitor of 1A2 and is negative TD inhibitor to the other six CYP isoforms.
The time-dependent inhibition (TDI) potential of test compounds against CYP1A2, 2B6, 2C8, 2C9, 2C19, 2D6, 3A4/5 isoforms were determined using Human liver microsomes. Assay is performed in 96-deep well plate format (n = 1). Positive controls and DMSO as negative control in each assay. To obtain 100 μ M working stock solution, 1 μ L of blank DMSO/test/reference compounds to 100 μ L 1× DPBS buffer was added and labeled as dilution plate. To the primary incubation plate, 45 μ L of primary mix was dispensed to the desired wells containing 25 μ L HLM, 10 μ L MgCl2, and 10 μ L of NADPH working solutions. To the secondary incubation plate, 95 μ L of secondary mix was dispensed to the desired wells containing 20 μ L MgCl2, 20 μ L NADPH, 10 μ L respective substrates for CYP isoform working solutions and 45 μ L 1× DPBS buffer. […] Pre-incubated the dilution plate along with primary incubation plate at 37 °C for 15 min at 450 rpm. The reaction was carried out in triplicate. After the incubation, the reaction was quenched by adding 150 μ L ice cold stop solution to all the wells followed by centrifuging the samples at 4000 rpm, 4 °C for 15 min. The supernatant samples were then transferred into vials for LC-MS/MS analysis. […]

[1] = Substrate depletion assay in human liver microsomes (HLM); assay type: in vitro ADME; conditions: pooled human liver microsomes, pH 7.4, test conc. 1.0E-07 M (Table S4)
Procedure: Microsomal stability was determined for the TbB ligands by monitoring the presence of compound after incubation in CPHH and HLM, as shown in Figure 7 and Figure S18 of the Supporting Information. […] Such an observation with NCEs is common because, with HLM, NADPH is used as a cofactor, thereby focusing mainly on phase 1 oxidation pathways such as P450 metabolism. Although additional enzymes, such as UDP-glucuronosyltransferase (UGTs), are present in HLM, the lack of the associated necessary cofactors prevents them from being functionally active (e.g., uridine diphosphate glucuronic acid (UDPGA)). In contrast, all the three TbB ligands metabolized in cryopreserved hepatocytes (Figure 7). […] The reason could be that hepatocytes have all the necessary enzymes and cofactors for the metabolic processes. Since they contain the complete set of oxidative/reductive, hydrolytic, and conjugative drug metabolizing enzymes found in the liver, they are regarded as the gold standard. Therefore, they are preferred in vitro options for expressing metabolic stability as substrate depletion, total metabolic clearance, and T 1/2 [29].
From the plot shown in Figure S18 of the Supporting Information, it can be inferred that the TbB ligands undergo slow biotransformation in HLM. Such high metabolic stability may result in drug interactions leading to toxicity of the parent compound. On the contrary, TbB ligands are undergoing rapid biotransformation in CPHH (Figure 7), and this may lead to generation of metabolites that are either toxic, active, or nonactive. Metabolic stability is typically expressed by in vitro half-life T 1/2 and intrinsic clearance (CLint) terms. Intrinsic clearance (CLint) is measured using the substrate depletion method. It describes the maximum liver (microsomal proteins or hepatocytes) activity towards a compound not affected by other physiological factors such as hepatic blood flow and drug binding within the blood matrix. T 1/2 is used to express the time for the 50% disappearance of the parent compound. A possible explanation for the difference in metabolic stability might be that the TbB ligands bind to microsomes during incubation. This can result in decreased free TbB ligand levels available to interact with metabolizing enzymes, reducing apparent intrinsic clearance values.
By preincubating a test substance for 5 minutes in phosphate buffer (pH 7.4) at 37 °C in shaking water bath, the stability of the test substance was examined in pooled HLM. After NADPH-generating systems addition, the reaction gets initiated and post incubation for 0, 15, 30, 45, and 60 min, the reaction is terminated with addition of acetonitrile/methanol to the incubation mixture. Supernatant obtained after mixing and centrifuging the sample is analyzed by HPLC-MS/MS. Microsomal protein for final use is at 0.1 mg/mL concentration. Four compounds, namely, propranolol and imipramine, known to be relatively stable, and verapamil and terfenadine, known as readily metabolizing in HLM, were included in each assay. Post HPLC-MS/MS of the samples, data are analyzed by considering test compounds peak area at each time point to time zero. Assuming the reaction to follow first-order kinetics, the slope of the initial linear range of the logarithmic curve of remaining compound (%) vs. time is considered to calculate the half-life. Additionally, the half-life is utilized to calculate the intrinsic clearance (CLint) as shown in the following equation. CLint(μL/min/mgprotein)=0.693/T1/2×proteinconc.

| Kobs 1A2 (CYP1A2) [min⁻¹] | Kobs 1A2 (CYP1A2; listed as 223-02) [min⁻¹] | Single concentration Kobs assay (risk bin) 1A2 (CYP1A2) | inhibition at 30 min (CYP1A2) [%] | half-life at 100 nM [1] [h] | microsomal CLint at 100 nM [1] [µL/min/mg] | Kobs 1A2 (CYP1A2; listed as 223-03) [min⁻¹] | Structure (SMILES) |
| --- | --- | --- | --- | --- | --- | --- | --- |
| 0.0159 | 0.01594 | weak positive inhibitor | < 50 | 13.5 | < 116 | – | COc1cc(-c2nnn(-c3cc(OC)c(O)c(OC)c3)n2)cc(OC)c1O [223-2] |
| 0.01456 | – | weak positive inhibitor | < 50 | 3 | < 116 | – | Oc1ccc(-c2nnn(-c3ccc(O)cc3)n2)cc1 [223-10] |
| 0.0333 | – | positive inhibitor | < 50 | 1.25 | < 116 | 0.03334 | Cc1cc(-c2nnn(-c3cc(C)c(O)c(C)c3)n2)cc(C)c1O [223-3] |
